Source: ChEMBL document CHEMBL5143542, “Synthesis and biological studies of "Polycerasoidol" and "trans-δ-Tocotrienolic acid" derivatives as PPARα and/or PPARγ agonists” (Bioorg Med Chem, 2022)
The source made the active and inactive calls. No cut-off for these calls is given here.

Key:
Format in all cases: cell-based
[1] = target: T1, Peroxisome proliferator-activated receptor gamma (Homo sapiens) (UniProt P37231); assay: Partial agonist activity at Gal4-fused human PPARgamma expressed in COS7 cells assessed as receptor transactivation at 10 uM measured after 24 hrs by luciferase/beta-galactosidase reporter gene assay; conditions: filed as partial agonist
T1 sequence (whole entry): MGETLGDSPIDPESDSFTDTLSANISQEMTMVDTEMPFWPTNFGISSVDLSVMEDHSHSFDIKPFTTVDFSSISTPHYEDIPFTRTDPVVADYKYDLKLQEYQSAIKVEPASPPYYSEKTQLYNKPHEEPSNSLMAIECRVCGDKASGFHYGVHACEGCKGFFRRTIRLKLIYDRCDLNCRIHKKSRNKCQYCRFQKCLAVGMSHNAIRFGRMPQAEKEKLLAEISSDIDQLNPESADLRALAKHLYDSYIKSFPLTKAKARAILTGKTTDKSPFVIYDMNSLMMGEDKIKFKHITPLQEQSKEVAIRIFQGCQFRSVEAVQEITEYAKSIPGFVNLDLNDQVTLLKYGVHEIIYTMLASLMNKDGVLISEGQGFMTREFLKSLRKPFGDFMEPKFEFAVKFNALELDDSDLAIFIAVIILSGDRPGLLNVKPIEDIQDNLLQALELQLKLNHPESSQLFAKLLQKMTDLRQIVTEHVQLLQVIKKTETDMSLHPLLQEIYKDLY

[2] = target: T2, Peroxisome proliferator-activated receptor gamma (Homo sapiens, UniProt P37231); assay: (§1) Agonist activity at Gal4-fused human PPARgamma expressed in COS7 cells assessed as receptor transactivation at 10 uM measured after 24 hrs by luciferase/beta-galactosidase reporter gene assay relative to rosiglitazone; conditions: cos7, 24 h, 10 µM
T2 sequence (P37231 whole entry): T1 sequence (whole entry)

PPARgamma = target: T3, PPARgamma (Homo sapiens, UniProt P37231); assay: as §1; conditions: COS7 cells expressing Gal4-fused human PPARgamma, read-out: max activation
T3 sequence (P37231 whole entry): T1 sequence (whole entry)

[3] = target: T4, Peroxisome proliferator-activated receptor alpha (Homo sapiens) (UniProt Q07869); assay: Agonist activity at Gal4-fused human PPARalpha expressed in COS7 cells assessed as receptor transactivation at 10 uM measured after 24 hrs by luciferase/beta-galactosidase reporter gene assay relative to WY-14643; conditions: filed as agonist
T4 sequence (whole entry): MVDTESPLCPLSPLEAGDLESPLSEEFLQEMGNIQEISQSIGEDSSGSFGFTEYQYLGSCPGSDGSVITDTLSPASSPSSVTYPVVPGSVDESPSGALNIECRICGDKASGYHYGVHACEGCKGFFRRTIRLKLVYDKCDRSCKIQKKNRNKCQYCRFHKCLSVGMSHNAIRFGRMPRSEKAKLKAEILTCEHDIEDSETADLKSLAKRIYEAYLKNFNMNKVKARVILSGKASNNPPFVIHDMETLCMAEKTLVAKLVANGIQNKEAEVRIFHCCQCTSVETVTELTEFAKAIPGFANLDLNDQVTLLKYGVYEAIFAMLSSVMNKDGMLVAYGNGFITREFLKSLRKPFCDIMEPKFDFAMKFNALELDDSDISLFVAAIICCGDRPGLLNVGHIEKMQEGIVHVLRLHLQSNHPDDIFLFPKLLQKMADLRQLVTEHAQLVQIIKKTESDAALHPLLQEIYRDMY

| Structure (SMILES) | Activity [1] | max activation [3] | Activity [3] | Activity [2] | Emax at 24 h, 10 µM (PPARgamma) |
| --- | --- | --- | --- | --- | --- |
| C/C(=C\CCC1(C)CCc2cc(OCc3ccccc3)ccc2O1)CC/C=C(\C)C(=O)Nc1ccccc1 (stereo unspecified) | Active |  |  |  |  |
| CCCOc1ccc2c(c1)CCC(C)(CC/C=C(\C)CC/C=C(\C)C(=O)OCC)O2 (stereo unspecified) |  |  |  | Active |  |
| C/C(=C\CC[C@]1(C)CCc2cc(O)cc(C)c2O1)CC/C=C(\C)C(=O)O |  | 107% |  |  | 95% |
| CCCOc1ccc2c(c1)CCC(C)(CC/C=C(\C)CC/C=C(\C)CC/C=C(\C)C(=O)OCC)O2 (stereo unspecified) |  |  | Active | Active |  |

Now from value to compound, other results behind:

| Activity [1] | max activation [3] | Activity [3] | Structure (SMILES) | Activity [2] | Emax at 24 h, 10 µM (PPARgamma) |
| --- | --- | --- | --- | --- | --- |
|  | 123% |  | CCOC(=O)CC/C(C)=C/CCC1(C)CCc2cc(OCc3ccccc3)ccc2O1 (stereo unspecified) |  | 38% |
|  |  | Active | C/C(=C\CCC1(C)CCc2cc(OCc3ccccc3)ccc2O1)CCC(=O)Nc1ccccc1 (stereo unspecified) | Active |  |
|  |  | Active | CCCOc1ccc2c(c1)CCC(C)(CC/C=C(\C)CCC(=O)OCC)O2 (stereo unspecified) | Active |  |
|  |  | Active | CCCOc1ccc2c(c1)CCC(C)(CC/C=C(\C)CCC(=O)Nc1ccccc1)O2 (stereo unspecified) | Active |  |
|  |  | Active | CCCOc1ccc2c(c1)CCC(C)(CC/C=C(\C)CC/C=C(\C)CC/C=C(\C)C(=O)Nc1ccccc1)O2 (stereo unspecified) | Active |  |
